Measurements as given in patent publication EP0897720A1, “Droloxifene for prevention of breast cancer” (Pfizer Products Inc., priority 1997, dated 1999).

Legend:
[1] = test system: puberal, female sprague-Dawley rats; experiment: Anti-uterotrophic effect (modified Dorfman Test); format: in vivo; conditions: 3 mg./kg./day by stomach tube, six times weekly over 21 days, 0.25% aqueous agar suspension
Experimental: The anti-uterotrophic effect was determined according to a modified "Dorfman Test" [R. I. Dorfman, Methods in Hormone Research II, p. […]

[2] = test system: 7,12-dimethylbenz(a)anthraceneinduced mammary tumor; experiment: Inhibitory effect on the mammary tumor (DMBA-induced tumor model); format: in vivo, female Sprague-Dawley rat (Hanover breed); conditions: 3 mg./kg./day by stomach tube, six times weekly over 28 days; control animals taken as 100%
Experimental: Twice weekly and on the 28th day of testing the number of animals was determined and the tumor surface (mm^2/animal) of the therapy animals and control animals was measured. At the end of testing, the percentage increase of the average tumor surface of the treated animals was determined in comparison to the control animals, the surface of the latter being taken as 100%.

[3] = test system: epithelial cells of the uterus; conditions: stated as a known side-effect of earlier anti-estrogens; cited from earlier work

SMILES	Uterine Weight compared to Controlled Animals [1] [%]	Relative Increase of the Average Tumor Surface [2] [%]	abnormal growth of uterine epithelial cells [3]
CC/C(=C(/c1ccc(OCCNC)cc1)c1cccc(O)c1)c1ccccc1 [Compound 3]	-53	–	–
CC/C(=C(/c1ccc(OCCN(C)C)cc1)c1cccc(O)c1)c1ccccc1 [Compound 1, 1-[4'-(2-dimethylaminoethoxy)phenyl]-1-(3'-hydroxyphenyl)-2-phenylbut-1-ene]	-42	23	–
CC/C(=C(/c1ccc(OCCN(CC)CC)cc1)c1cccc(O)c1)c1ccccc1 [Compound 2]	-39	–	–
CC/C(=C(\c1ccccc1)c1ccc(OCCN(C)C)cc1)c1ccccc1 [Tamoxifen, reference compound]	-40	–	causes abnormal growth of uterine epithelial cells
